Where two headings read alike, the source gives them in different places.
Tests used:
CYP3A4 [1] = system: CYP3A4; parameters: method as in PMID 22971642; conditions: RTV 50 mg kg^−1, mice; cited from earlier work
CYP3A = experiment: Functional imaging of CYP3A4 in mouse liver tissue slices; conditions: pre‐incubated 1 h, inhibitor 20 µM
CYP3A4 [2] = biological target: T1, CYP3A4 (Homo sapiens, UniProt P08684); experiment: in vitro; conditions: pH 7.4
CYP3A4 [3] = biological target: T1, CYP3A4; experiment: Inhibitory effect of D13 in CHO-3A4 stably transfected cell line; type: cell-based; parameters: expressed in transfected cells; host or cells: CHO-3A4 stably transfected cell line; conditions: CHO-3A4 cells, D13 1 h, NFa 10 μM 30 min; read-out: inhibitory effect (IC50) in living cells
CYP3A4 [4] = experiment: Liver organ imaging in the presence of CYP3A4 inhibitor (ex vivo); conditions: mouse, excised whole liver tissue (ex vivo), probe NFa (50 µM); whole mice liver, inhibitor 1 h, NFa 50 µM 30 min; read-out: IC50 (4‐HNFa levels in liver tissue)
CYP3A4 [5] = biological target: T1, CYP3A4; experiment: NFa-based screening and characterizing of hCYP3A4 inhibitors in HLMs; conditions: human, human liver microsomes, pH 7.4, probe NFa (4-hydroxylation to 4-HNFa)
hCYP3A4 in HLMs = hCYP3A4 in HLMs (Homo sapiens, UniProt P08684); experiment: as above
CYP3A4 [6] = biological target: T1, CYP3A4; experiment: NFa-based inhibition assay in recombinant hCYP3A4; type: biochemical; parameters: purchased Cypex; conditions: read-out: IC50 against CYP3A4‐catalyzed NFa 4‐hydroxylation
CYP3A4 [7] = experiment: In vivo inhibitory effect against CYP3A4 (pharmacokinetics of NFa with inhibitor); parameters: species or system C57 mice; conditions: inhibitor 50 mg/kg i.g., NFa 20 mg/kg i.g., mice
aldehyde oxidase (AO) = biological target: T2, aldehyde oxidase (AO) (Homo sapiens, UniProt Q06278); experiment: Oxidative metabolism of NFa in AO (human liver cytosol); type: in vitro ADME; conditions: NFa 20 μM, human liver cytosol without NADPH, 30 min
T2 construct: The oxidative metabolism of NFa in human liver cytosol (HLC) without NADPH; from tissue; host or cells: human liver cytosol
T2 sequence (Q06278 1-1338): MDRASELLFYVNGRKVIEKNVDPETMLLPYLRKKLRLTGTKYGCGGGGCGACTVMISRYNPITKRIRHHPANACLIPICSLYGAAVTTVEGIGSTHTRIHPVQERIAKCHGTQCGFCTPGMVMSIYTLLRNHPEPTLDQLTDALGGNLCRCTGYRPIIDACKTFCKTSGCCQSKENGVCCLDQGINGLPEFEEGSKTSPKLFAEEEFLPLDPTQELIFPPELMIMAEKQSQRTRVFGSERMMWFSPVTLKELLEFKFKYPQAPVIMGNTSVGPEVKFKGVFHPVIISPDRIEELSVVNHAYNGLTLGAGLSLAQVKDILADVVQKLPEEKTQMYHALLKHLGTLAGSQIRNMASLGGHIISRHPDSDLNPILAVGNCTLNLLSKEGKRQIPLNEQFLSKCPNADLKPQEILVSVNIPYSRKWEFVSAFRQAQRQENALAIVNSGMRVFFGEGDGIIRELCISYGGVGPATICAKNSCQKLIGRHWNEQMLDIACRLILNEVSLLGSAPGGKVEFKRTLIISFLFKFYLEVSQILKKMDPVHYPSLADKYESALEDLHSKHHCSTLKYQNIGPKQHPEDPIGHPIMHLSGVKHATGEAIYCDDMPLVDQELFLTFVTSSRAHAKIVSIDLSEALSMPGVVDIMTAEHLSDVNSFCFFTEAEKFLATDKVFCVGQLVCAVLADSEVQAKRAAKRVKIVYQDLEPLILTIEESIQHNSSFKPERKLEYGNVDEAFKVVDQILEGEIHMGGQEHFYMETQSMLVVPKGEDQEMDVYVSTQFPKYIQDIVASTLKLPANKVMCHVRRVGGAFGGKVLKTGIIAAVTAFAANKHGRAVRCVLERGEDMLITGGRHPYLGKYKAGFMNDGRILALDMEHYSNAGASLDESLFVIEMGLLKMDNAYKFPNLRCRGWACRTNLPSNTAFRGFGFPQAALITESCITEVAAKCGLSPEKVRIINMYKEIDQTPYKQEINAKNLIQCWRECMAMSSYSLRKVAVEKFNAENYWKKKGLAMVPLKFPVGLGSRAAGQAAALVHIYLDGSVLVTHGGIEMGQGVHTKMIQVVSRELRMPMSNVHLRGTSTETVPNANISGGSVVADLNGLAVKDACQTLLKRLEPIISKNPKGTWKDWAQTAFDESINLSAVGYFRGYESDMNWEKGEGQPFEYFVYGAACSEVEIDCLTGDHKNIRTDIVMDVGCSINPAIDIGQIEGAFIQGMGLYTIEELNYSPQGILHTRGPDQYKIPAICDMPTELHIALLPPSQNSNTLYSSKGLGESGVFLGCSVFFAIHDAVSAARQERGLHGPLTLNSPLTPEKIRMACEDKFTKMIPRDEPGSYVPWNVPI

[8] = Safety test of NFa in healthy mice; type: in vivo, C57BL/6J mice; conditions: oral 100 mg kg^−1 per day, 14 consecutive days
Hep3B cells = experiment: Cell-membrane permeability in Hep3B cells; type: cell-based; conditions: 20 μM, 60 min
[9] = system: panel of human recombinant cytochrome P450 enzymes; experiment: P450 reaction phenotyping analysis; type: biochemical; conditions: each recombinant CYP 2.5 nM, 37 °C, 30 min
CYP3A4 [10] = biological target: T1, CYP3A4; experiment: Fluorescence response of NFa toward hCYP3A4; type: biochemical; parameters: purchased Cypex
CYP3A4 [11] = biological target: T1, CYP3A4; experiment: Enzyme kinetic analyses of NFs 4-hydroxylation by hCYP3A4; type: biochemical; parameters: purchased Cypex
CYP3A4 [12] = biological target: T1, CYP3A4; experiment: Functional imaging of hCYP3A4 in living cells; type: cell-based; conditions: MCF‐7 and Hep3B cells
[13] = system: MCF‐7, Hep3B, and U87 cells; experiment: Cytotoxicity assays; type: cell-based
[14] = Optical properties, photostability and pH stability of NFa and 4-HNFa; type: physicochemical; parameters: maximum UV absorption: unit not given here
NCM460 cells = experiment: Cell-membrane permeability in NCM460 cells; type: cell-based; conditions: 20 μM, 60 min
P-gp = biological target: T3, P-gp (Homo sapiens, UniProt P08183); experiment: Identification of the P-gp substrates in living cells (MDR1-MDCK); type: cell-based; conditions: with/without verapamil
T3 construct: expressed in transfected cells; host or cells: MDR1-MDCK

[15] = Pharmacokinetics and oral bioavailability of NFa; type: in vivo; conditions: mice
FMO1, FMO3, FMO5 = experiment: Oxidative metabolism of NFa in FMOs; type: in vitro ADME; conditions: NFa 20 μM, NADPH, 30 min
[16] = In vivo inhibitory effect against CYP3A4 (pharmacokinetics of NFa with inhibitor); parameters: species or system C57 mice; conditions: C57, mouse, plasma, po, 20 mg/kg, mice plasma; for AUC: read-out: AUC(0‐inf)
[17] = mouse, plasma, po, 20 mg/kg, i.g.
[18] = NFa 20 mg/kg i.g. with D13 50 mg/kg i.g.
[19] = NFa 20 mg/kg i.g. with RTV 50 mg/kg i.g.
[20] = NFa 20 mg/kg i.g., control group CMC‐Na

T1 sequence (P08684 whole entry): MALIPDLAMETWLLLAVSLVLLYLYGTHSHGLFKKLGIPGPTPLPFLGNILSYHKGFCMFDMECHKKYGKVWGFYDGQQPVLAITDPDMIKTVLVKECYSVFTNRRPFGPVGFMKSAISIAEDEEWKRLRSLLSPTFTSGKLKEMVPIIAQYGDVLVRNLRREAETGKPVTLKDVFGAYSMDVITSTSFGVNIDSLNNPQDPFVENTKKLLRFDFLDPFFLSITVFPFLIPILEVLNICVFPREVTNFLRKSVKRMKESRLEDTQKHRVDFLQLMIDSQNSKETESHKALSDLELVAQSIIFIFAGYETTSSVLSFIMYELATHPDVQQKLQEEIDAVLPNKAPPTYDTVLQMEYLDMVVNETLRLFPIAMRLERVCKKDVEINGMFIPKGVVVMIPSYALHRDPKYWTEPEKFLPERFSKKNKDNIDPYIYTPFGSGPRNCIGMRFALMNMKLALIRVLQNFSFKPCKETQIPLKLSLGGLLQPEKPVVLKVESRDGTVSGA
Sequence of hCYP3A4 in HLMs (P08684 whole entry): as above
T3 sequence (P08183 whole entry): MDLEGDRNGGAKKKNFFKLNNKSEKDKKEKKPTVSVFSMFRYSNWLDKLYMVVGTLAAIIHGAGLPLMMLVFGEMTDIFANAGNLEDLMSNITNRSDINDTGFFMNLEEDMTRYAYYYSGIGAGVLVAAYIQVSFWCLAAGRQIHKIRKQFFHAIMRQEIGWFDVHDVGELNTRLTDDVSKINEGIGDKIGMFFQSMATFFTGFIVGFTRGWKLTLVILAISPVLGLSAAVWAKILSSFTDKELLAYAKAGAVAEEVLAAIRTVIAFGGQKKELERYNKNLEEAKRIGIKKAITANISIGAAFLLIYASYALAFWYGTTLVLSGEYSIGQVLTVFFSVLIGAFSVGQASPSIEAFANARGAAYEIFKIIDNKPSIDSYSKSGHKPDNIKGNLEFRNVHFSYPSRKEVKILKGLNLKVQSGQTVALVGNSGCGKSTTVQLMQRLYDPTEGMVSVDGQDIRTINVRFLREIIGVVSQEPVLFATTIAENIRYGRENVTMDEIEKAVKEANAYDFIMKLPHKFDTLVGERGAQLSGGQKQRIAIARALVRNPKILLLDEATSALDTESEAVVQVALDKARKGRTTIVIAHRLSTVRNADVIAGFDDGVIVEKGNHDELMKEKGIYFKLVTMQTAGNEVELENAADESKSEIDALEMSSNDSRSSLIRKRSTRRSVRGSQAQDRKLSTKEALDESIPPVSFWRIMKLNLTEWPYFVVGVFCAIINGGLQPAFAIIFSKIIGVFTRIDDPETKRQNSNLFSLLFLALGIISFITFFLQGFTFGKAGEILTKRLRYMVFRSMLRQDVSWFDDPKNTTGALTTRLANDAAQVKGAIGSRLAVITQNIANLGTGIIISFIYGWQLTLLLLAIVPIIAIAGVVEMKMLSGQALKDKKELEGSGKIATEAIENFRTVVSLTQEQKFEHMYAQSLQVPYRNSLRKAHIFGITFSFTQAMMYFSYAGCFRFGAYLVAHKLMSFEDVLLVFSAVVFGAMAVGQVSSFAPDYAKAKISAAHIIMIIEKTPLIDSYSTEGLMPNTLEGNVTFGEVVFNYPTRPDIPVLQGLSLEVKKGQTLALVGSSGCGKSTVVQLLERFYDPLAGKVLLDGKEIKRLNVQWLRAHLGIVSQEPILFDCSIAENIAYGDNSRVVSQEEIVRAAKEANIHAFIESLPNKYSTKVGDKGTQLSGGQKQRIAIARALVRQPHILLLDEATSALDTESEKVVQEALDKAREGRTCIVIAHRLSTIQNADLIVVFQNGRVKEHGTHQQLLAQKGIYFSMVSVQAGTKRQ

CC(C)c1nc(CN(C)C(=O)N[C@H](C(=O)N[C@@H](Cc2ccccc2)C[C@H](O)[C@H](Cc2ccccc2)NC(=O)OCc2cncs2)C(C)C)cs1 [RTV, Ritonavir]
increase of AUCinf of midazolam (oral) when co‐administered with RTV (CYP3A4 [1]): five‐fold

CC(=O)N1CCN(c2ccc(OCC3COC(Cn4ccnc4)(c4ccc(Cl)cc4Cl)O3)cc2)CC1 (centres unmarked) [KET, ketoconazole, reference compound]
effect on NFa green signals in mouse liver slices (CYP3A): significantly blocked
activity at 30 min, 1 µM (CYP3A4 [2]): 1.91%

O=C(/C=C/c1ccc2cnccc2c1)c1ccc(N2CCCC2)cc1 [D13, (E)-3-(isoquinolin-6-yl)-1-(4-(pyrrolidin-1-yl)phenyl)prop-2-en-1-one]
IC50 (CYP3A4 [3]): 25.4 nM
IC50 (CYP3A4 [4]): 270 ± 50 nM
activity at 30 min, 1 µM (CYP3A4 [5]): 4.08%
IC50 (hCYP3A4 in HLMs): 13.6 nM
Residual activity (hCYP3A4 in HLMs; inhibitor 1 μM, HLMs, NFa as fluorogenic substrate): completely inhibited
IC50 (CYP3A4 [6]): 10.9 nM
Ratio of AUC(0‐inf) of NFa (inhibitor group / control group) (CYP3A4 [7]): 7.22
Ratio of C max of NFa (inhibitor group / control group) (CYP3A4 [7]): 2.37
Ratio of T max of NFa (inhibitor group / control group) (CYP3A4 [7]): 0.56
Ratio of t 1/2 of NFa (inhibitor group / control group) (CYP3A4 [7]): 2.87

O=C1c2cccc3cccc(c23)C(=O)N1Cc1cscn1 [NFa, N-(4-Thiazolemethanamino)-naphtahlimide]
participation of AO in the oxidative metabolism (aldehyde oxidase (AO)): did not participate
biochemical assays and H&E staining findings [8]: no haematotoxicity, organ injuries, or apparent abnormalities
body weight [8]: gradual increase
mortality [8]: no mortality
enhancement of cell‐membrane permeability versus NEN (Hep3B cells): 5.6 fold
isoform specificity as P450 substrate [9]: highly specific substrates for hCYP3A4
limit of detection for sensing hCYP3A4 (CYP3A4 [10]): 0.047 nM
interference from endogenous fatty acids, amino acids, and cations on NFa 4‐hydroxylation by hCYP3A4 (CYP3A4 [10]; NFa 10 μM, 37 ℃, 30 min): no interference
enhancement in fluorescence emission ≈555 nM (CYP3A4 [10]; NFa 10 µM, hCYP3A4 10 nM, 37 °C, 30 min, λex 450): 154 fold
K m (CYP3A4 [11]): 13.33 ± 1.01 µM
Pearson's coefficient of co‐localization with ER‐Tracker Red (CYP3A4 [12]): 0.99
cytotoxicity [13]: weak cytotoxicity
Molar extinction coefficient ε [14]: 44300 M⁻¹ cm⁻¹
maximum UV absorption [14]: 340
maximum fluorogenic emission [14]: 390 nm
enhancement of cell‐membrane permeability versus NEN (NCM460 cells): 28 fold
P‐gp substrate status (P-gp): non‐substrate for P‐gp
Oral bioavailability ([15]; 20 mg/kg i.g. vs 2 mg/kg i.v.): 15.27%
AUC(0-inf) ([15]; mouse, plasma, iv, 2 mg/kg): 439 ± 40.7 ng·h/mL
Cmax ([15]; mouse, plasma, iv, 2 mg/kg): 913 ± 116 ng/mL
Tmax ([15]; mouse, plasma, iv, 2 mg/kg): 0.083 h
half-life ([15]; mouse, plasma, iv, 2 mg/kg): 1.24 ± 0.39 h
bioavailability ([15]; mouse, plasma, oral, 20 mg/kg, 20 mg/kg i.g. vs 2 mg/kg i.v.): 15.3%
AUC(0-inf) [15, 17]: 670 ± 232 ng·h/mL
Cmax [15, 17]: 250 ± 90 ng/mL
Tmax [15, 17]: 1.17 ± 0.41 h
half-life [15, 17]: 1.55 ± 0.61 h
participation of FMOs in the oxidative metabolism (FMO1, FMO3, FMO5): did not participate
Cmax [16, 18]: 498 ± 209 ng/mL
Tmax [16, 18]: 0.7 ± 0.27 h
half-life [16, 18]: 6.37 ± 4.65 h
AUC [16, 18]: 4630 ± 2230 ng·h/mL
Cmax [16, 19]: 494 ± 131 ng/mL
Tmax [16, 19]: 0.95 ± 0.67 h
half-life [16, 19]: 8.09 ± 7.52 h
AUC [16, 19]: 5800 ± 5000 ng·h/mL
Cmax [16, 20]: 210 ± 125 ng/mL
Tmax [16, 20]: 1.25 ± 0.61 h
half-life [16, 20]: 2.22 ± 0.94 h
AUC [16, 20]: 642 ± 146 ng·h/mL

— article PMC12036557, “Functional Imaging of CYP3A4 at Multiple Dimensions Using an AI‐Driven High Performance Fluorogenic Substrate” (Small (Weinheim an Der Bergstrasse, Germany), 2025)
